Experimental data taken from ChEMBL document CHEMBL1201862, “PubChem BioAssay data set” (2004).
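Exposure lasted 48 hours, with cells grown in 96-well plates and compounds tested at five concentrations. The concentration for 50% growth inhibition is given as GI50.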 Activity calls are given as the source filed them. No stated cut-off is given here; in the data, active = GI50 up to about 1.1 µM and inactive = higher.

Assays:
Experiment in all cases: NCI anticancer screen, dose series, 48 h
[1] = tested on: 786-0
[2] = tested on: A498
[3] = tested on: A549
[4] = tested on: ACHN
[5] = tested on: CAKI-1
[6] = tested on: CCRF-CEM
[7] = tested on: COLO 205
[8] = tested on: DLD-1
[9] = tested on: DMS-273
[10] = tested on: EKVX
[11] = tested on: HCC 2998
[12] = tested on: HCT-116
[13] = tested on: HCT-15
[14] = tested on: HL-60
[15] = tested on: HOP-18
[16] = tested on: HOP-62
[17] = tested on: HOP-92
[18] = tested on: HT-29
[19] = tested on: IGROV-1
[20] = tested on: K562
[21] = tested on: KM-20L2
[22] = tested on: KM12
[23] = tested on: LOX IMVI
[24] = tested on: LXFL 529
[25] = tested on: M14
[26] = tested on: M19-MEL
[27] = tested on: MOLT-4
[28] = tested on: Malme-3M
[29] = tested on: NCI-H226
[30] = tested on: NCI-H23
[31] = tested on: NCI-H460
[32] = tested on: OVCAR-3
[33] = tested on: OVCAR-4
[34] = tested on: OVCAR-5
[35] = tested on: OVCAR-8
[36] = tested on: RPMI-8226
[37] = tested on: RXF 393
[38] = tested on: RXF 631
[39] = tested on: SF-268
[40] = tested on: SF-295
[41] = tested on: SF-539
[42] = tested on: SK-MEL-28
[43] = tested on: SK-MEL-2
[44] = tested on: SK-MEL-5
[45] = tested on: SK-OV-3
[46] = tested on: SN12C
[47] = tested on: SNB-75
[48] = tested on: SNB-78
[49] = tested on: SR
[50] = tested on: SW-620
[51] = tested on: TK-10
[52] = tested on: U-251
[53] = tested on: UACC-257
[54] = tested on: UACC-62
[55] = tested on: UO-31
[56] = tested on: XF498
[57] = tested on: DMS-114
[58] = tested on: SNB-19

With `CC/C(=N\NS(=O)(=O)c1ccccc1)c1ccccc1` the GI50 [1] was > 100 µM (inactive), the GI50 [2] was > 100 µM (inactive) and the GI50 [3] was > 100 µM (inactive). The GI50 [4] was > 100 µM (inactive), the GI50 [5] was > 100 µM (inactive) and the GI50 [6] was > 100 µM (inactive). For the same molecule, the GI50 [7] was > 100 µM (inactive), the GI50 [8] was > 100 µM (inactive) and the GI50 [9] was > 100 µM (inactive). For the same molecule, the GI50 [10] was > 100 µM (inactive), the GI50 [11] was > 100 µM (inactive) and the GI50 [12] was > 100 µM (inactive). For the same molecule, the GI50 [13] was over 100 µM, the GI50 [14] was > 100 µM (inactive) and the GI50 [15] was > 100 µM (inactive). The GI50 [16] was > 100 µM (inactive), the GI50 [17] was > 100 µM (inactive) and the GI50 [18] was > 100 µM (inactive). The GI50 [19] was > 100 µM (inactive), the GI50 [20] was > 100 µM (inactive) and the GI50 [21] was > 100 µM (inactive). The GI50 [22] was > 100 µM (inactive), the GI50 [23] was > 100 µM (inactive) and the GI50 [24] was > 100 µM (inactive). For the same molecule, the GI50 [25] was > 100 µM (inactive), the GI50 [26] was > 100 µM (inactive) and the GI50 [27] was > 100 µM (inactive). The GI50 [28] was > 100 µM (inactive), the GI50 [29] was > 100 µM (inactive) and the GI50 [30] was > 100 µM (inactive). For the same molecule, the GI50 [31] was > 100 µM (inactive), the GI50 [32] was > 100 µM (inactive) and the GI50 [33] was > 100 µM (inactive). For the same molecule, the GI50 [34] was > 100 µM (inactive), the GI50 [35] was > 100 µM (inactive) and the GI50 [36] was > 100 µM (inactive). For the same molecule, the GI50 [37] was > 100 µM (inactive), the GI50 [38] was > 100 µM (inactive) and the GI50 [39] was > 100 µM (inactive). For the same molecule, the GI50 [40] was > 100 µM (inactive), the GI50 [41] was > 100 µM (inactive) and the GI50 [42] was > 100 µM (inactive). The GI50 [43] was > 100 µM (inactive), the GI50 [44] was > 100 µM (inactive) and the GI50 [45] was > 100 µM (inactive). For the same molecule, the GI50 [46] was > 100 µM (inactive), the GI50 [47] was > 100 µM (inactive) and the GI50 [48] was > 100 µM (inactive). For the same molecule, the GI50 [49] was > 100 µM (inactive), the GI50 [50] was > 100 µM (inactive) and the GI50 [51] was > 100 µM (inactive). For the same molecule, the GI50 [52] was > 100 µM (inactive), the GI50 [53] was > 100 µM (inactive) and the GI50 [54] was > 100 µM (inactive). The GI50 [55] was > 100 µM (inactive) and the GI50 [56] was > 100 µM (inactive).

`Cc1cc(C)nc(NS(=O)(=O)c2ccc(NC(=O)c3ccc(Cl)c4c(Nc5ccc(S(=O)(=O)Nc6nc(C)cc(C)n6)cc5)c5ccccc5nc34)cc2)n1` was tested, and the GI50 [1] was 5.18 µM (inactive), the GI50 [2] was 23.8 µM (inactive) and the GI50 [3] was 22.8 µM (inactive). For the same molecule, the GI50 [4] was 26.9 µM (inactive), the GI50 [5] was 42.3 µM (inactive) and the GI50 [6] was 4.09 µM (inactive). The GI50 [7] was 15.9 µM (inactive), the GI50 [8] was 21.9 µM (inactive) and the GI50 [57] was 2.87 µM (inactive). For the same molecule, the GI50 [9] was 6.34 µM (inactive), the GI50 [10] was 48.1 µM (inactive) and the GI50 [12] was 1.82 µM (inactive). For the same molecule, the GI50 [13] was 26.9 µM, the GI50 [14] was 3.15 µM (inactive) and the GI50 [15] was 2.32 µM (inactive). For the same molecule, the GI50 [16] was 6.44 µM (inactive), the GI50 [17] was 2.08 µM (inactive) and the GI50 [18] was 31.7 µM (inactive). For the same molecule, the GI50 [19] was 3.31 µM (inactive), the GI50 [20] was 9.95 µM (inactive) and the GI50 [21] was 6.43 µM (inactive). The GI50 [22] was 21.8 µM (inactive), the GI50 [23] was 3.91 µM (inactive) and the GI50 [24] was 4.69 µM (inactive). The GI50 [25] was 2.64 µM (inactive), the GI50 [26] was 2.91 µM (inactive) and the GI50 [27] was 4.5 µM (inactive). For the same molecule, the GI50 [28] was 14.4 µM (inactive), the GI50 [30] was 3.75 µM (inactive) and the GI50 [31] was 17 µM (inactive). For the same molecule, the GI50 [32] was 29.2 µM (inactive), the GI50 [33] was 11 µM (inactive) and the GI50 [34] was 15.7 µM (inactive). The GI50 [35] was 17.4 µM (inactive), the GI50 [36] was 3.72 µM (inactive) and the GI50 [37] was 2.16 µM (inactive). For the same molecule, the GI50 [38] was 4.29 µM (inactive), the GI50 [39] was 4.41 µM (inactive) and the GI50 [40] was 25.4 µM (inactive). The GI50 [41] was 2.22 µM (inactive), the GI50 [42] was 4.28 µM (inactive) and the GI50 [43] was 13.7 µM (inactive). The GI50 [44] was 17.7 µM (inactive), the GI50 [45] was 13.7 µM (inactive) and the GI50 [46] was 3.14 µM (inactive). The GI50 [58] was 4.89 µM (inactive), the GI50 [47] was 21.3 µM (inactive) and the GI50 [48] was 3.71 µM (inactive). The GI50 [50] was 18.2 µM (inactive), the GI50 [51] was 33.4 µM (inactive) and the GI50 [52] was 3.24 µM (inactive). The GI50 [53] was 27.7 µM (inactive), the GI50 [54] was 2.04 µM (inactive) and the GI50 [55] was 24.9 µM (inactive). For the same molecule, the GI50 [56] was > 100 µM (inactive).

`c1ccc2c(c1)CCC/C2=N\OCC1CO1` (stereo not given) was tested, and the GI50 [1] was > 100 µM (inactive), the GI50 [2] was 82 µM (inactive) and the GI50 [3] was > 100 µM (inactive). For the same molecule, the GI50 [4] was 68.4 µM (inactive), the GI50 [5] was 36.1 µM (inactive) and the GI50 [6] was 23.2 µM (inactive). For the same molecule, the GI50 [7] was > 100 µM (inactive), the GI50 [8] was 73.3 µM (inactive) and the GI50 [9] was > 100 µM (inactive). The GI50 [10] was > 100 µM (inactive), the GI50 [11] was > 100 µM (inactive) and the GI50 [12] was 47.2 µM (inactive). For the same molecule, the GI50 [13] was over 100 µM, the GI50 [14] was 28.4 µM (inactive) and the GI50 [15] was 66.2 µM (inactive). For the same molecule, the GI50 [16] was > 100 µM (inactive), the GI50 [17] was 5.77 µM (inactive) and the GI50 [18] was 98.4 µM (inactive). The GI50 [19] was > 100 µM (inactive), the GI50 [20] was 43.8 µM (inactive) and the GI50 [21] was > 100 µM (inactive). The GI50 [22] was > 100 µM (inactive), the GI50 [23] was 36.3 µM (inactive) and the GI50 [24] was 64.3 µM (inactive). For the same molecule, the GI50 [25] was 80.9 µM (inactive), the GI50 [26] was > 100 µM (inactive) and the GI50 [27] was 49.3 µM (inactive). The GI50 [28] was > 100 µM (inactive), the GI50 [30] was 80 µM (inactive) and the GI50 [31] was > 100 µM (inactive). The GI50 [32] was > 100 µM (inactive), the GI50 [33] was > 100 µM (inactive) and the GI50 [34] was > 100 µM (inactive). For the same molecule, the GI50 [35] was 81.7 µM (inactive), the GI50 [36] was 55.1 µM (inactive) and the GI50 [37] was 31.8 µM (inactive). The GI50 [38] was > 100 µM (inactive), the GI50 [39] was 52.4 µM (inactive) and the GI50 [40] was 70.1 µM (inactive). For the same molecule, the GI50 [41] was > 100 µM (inactive), the GI50 [43] was 61.2 µM (inactive) and the GI50 [44] was > 100 µM (inactive). For the same molecule, the GI50 [45] was > 100 µM (inactive), the GI50 [46] was > 100 µM (inactive) and the GI50 [58] was > 100 µM (inactive). The GI50 [47] was > 100 µM (inactive), the GI50 [48] was > 100 µM (inactive) and the GI50 [50] was 92.9 µM (inactive). For the same molecule, the GI50 [51] was > 100 µM (inactive), the GI50 [52] was > 100 µM (inactive) and the GI50 [53] was > 100 µM (inactive). For the same molecule, the GI50 [54] was 58.6 µM (inactive), the GI50 [55] was 38.6 µM (inactive) and the GI50 [56] was 37.6 µM (inactive).
